Where “and” joins values, the source holds several entries; their conditions need not be identical. Equal entries are not always repeated. Marks after values point to notes of the source that are not given here.
Key:
MM-46 breast cancer [1] = assay type: in vivo, female C3H/He mice; settings: 100 mg/kg, ip × 9
Protocol: The active compounds, I to L, mentioned above were severally dissolved in distilled water to obtain aqueous solutions containing the compounds in a fixed concentration of 10 mg/ml. To female C3H/He mice (five weeks old) to which the MM-46 breast cancer had been transplanted in a ratio of 1.0 x 10^5 cells per mouse, the aqueous solutions were continuously administered at a dose of 100 mg/kg of body weight by intraperitoneal injection for nine days to determine the mice's periods of survival. For comparison, mice to which no aqueous solution was administered and mice to which aminonitrosourea was administered were similarly tested.

MM-46 breast cancer [2] = assay: MM-46 breast cancer, evaluation by size of tumor (Examples 21 to 24); assay type: in vivo, female C3H/He mice; settings: 100 mg/kg; for Average weight of tumor / Number of tumorless mice /total number of mice: ip × 9; for T/control: ip×9, tumor weight
Protocol: A polymolybdate, K6[Mo7022(02)2]8H20 (Compound I), and the aforementioned other compounds (Compounds J to L) were severally dissolved in distilled water to obtain aqueous solutions containing the compounds in a fixed concentration of 10 mg/mi. To female C3H/He mice (five weeks old) to which MM-46 breast cancer had been transplanted, the aqueous solutions were administered to test the compounds for antineoplastic activity. To be more specific, the MM-46 breast cancer was transplanted to the mice at a ratio of 5.0 x 10^5 cells per mouse and the aqueous solutions were continuously administered (at a dose of 100 mg/kg of body weight) by intraperineal injection for nine days. On elapse of 14 days after the stop of the administration, the size of tumor in the mice was measured. For comparison, mice to which the aqueous solution was not administered and mice to which aminonitroso urea was administered were similarly tested.

[3] = test system: methyl cholanthrene A tumor; assay: Antineoplastic activity against transplanted methyl cholanthrene A tumor, evaluation by size of tumor (Examples 1 to 6); assay type: in vivo, female BALB/C mice; settings: No. 3, 25 mg/kg, ip×9
Protocol: By dissolving alkylammonium salt of polymolybdic acid [NH3C3H7(iso)]s [Mo7O24] • 3H2O (Compound A) and other compounds (Compounds B to D) severally in distilled water, aqueous solutions containing the compounds in a fixed concentration of 10 mg/ml were obtained. These aqueous solutions were administered to female BALB/C mice (five weeks old) to which methyl cholanthrene A tumor had been transplanted to test the compounds for antineoplastic activity. To be specific, methyl cholanthrene A was transplanted to the mice in a ratio of 1.0 x 10^5 cells per mouse and the aqueous solutions were continuously administered to the mice by intraperitoneal injection ([…]) for nine days. On elapse of 14 days following the start of the administration, the tumors in the mice were measured. For comparison, mice to which no antineoplastic .drug was administered and mice to which aminonitroso urea was administered were tested by following the procedure described above.

methyl cholanthrene A = assay: Methyl cholanthrene A tumor, evaluation by extension of period of survival (Examples 7 to 11); assay type: in vivo, female BALB/C mice; settings: No. 2, 25 mg/kg
Protocol: The aforementioned compounds, A to D, were severally dissolved in distilled water to obtain aqueous solutions containing the compounds in a fixed concentration of 10 mg/ml. To the female BALB/C mice (five weeks old) to which methyl cholanthrene A had been transplanted in a ratio of 1.0 x 10^5 cells per mouse, […] to determine the mices' periods of survival. For comparison, mice to which no antineoplastic drug was administered and mice to which aminonitroso urea was administered were similarly tested.

[4] = test system: human breast cancer (MX-1); assay: Human breast cancer MX-1, SRC method (Examples 29 and 30); assay type: in vivo, female ICR/cd-1 mice
[5] = 30 mg/kg ip(×5), individual mice
[6] = 129 mg/kg po(×5), individual mice
[7] = 257 mg/kg po(×5), individual mice

K6 [Mo7O23(O2)] • 8H2O [Compound K]
Average number of days of survival (MM-46 breast cancer [1]): 32.1±2.7(8) days
Average weight of tumor after 14 days (MM-46 breast cancer [1]): 1140± 221(8) mg
Ratio of elongation of life (5) (MM-46 breast cancer [1]): 94.5
Average weight of tumor (MM-46 breast cancer [2]): 1139.5±221.1(8 ) mg
Number of tumorless mice /total number of mice (MM-46 breast cancer [2]): 0/8
T/control (MM-46 breast cancer [2]): 0.399

[NH3C3H7(iso)]4 (Mo13O40] 1/3 • [Mo12O40H2]2/3 [Compound B]
Average weight of tumor [3]: 1753.1±132.4(9) mg
Number of tumorless mice /total number of mice [3]: 0/9
Change in body weight ([3]; body weight 13 days after transplantation): -0.36 g
T/control ([3]; tumor weight): 0.681
Average number of days of survival (methyl cholanthrene A; ip×9): 29.3±1.9(9) days
Number of toxically killed mice/total number of mice (methyl cholanthrene A; ip×9): 0/9
Change in body weight (methyl cholanthrene A; ip×9, D1~D9): -0.36 g
T/control (methyl cholanthrene A; ip×9, days of survival): 130.4

O=c1[nH]cc(F)c(=O)[nH]1 [Compound 5-FU, 5-fluorouracil]
T/C ([4]; 30 mg/kg ip(×5)): 56.48* %
T7/To ([4]; 30 mg/kg ip(×5), group mean): 0.779±0.072
T7/To [4, 5]: 0.839 and 0.576 and 0.917 and 0.786
Tumor 7 days after transplantation (T7) [4, 5]: 13.0 omu and 7.5 omu and 16.5 omu and 11.0 omu

[NH3 (iso)]6 [Mo7O23(O2)] • 5H20 [Compound L]
Average number of days of survival (MM-46 breast cancer [1]): 32.1±3.9(8) days
Average weight of tumor after 14 days (MM-46 breast cancer [1]): 1086 ± 132(8) mg
Ratio of elongation of life (5) (MM-46 breast cancer [1]): 94.5
Average weight of tumor (MM-46 breast cancer [2]): 1085.6±133.2** ** mg
Number of tumorless mice /total number of mice (MM-46 breast cancer [2]): 0/8
T/control (MM-46 breast cancer [2]): 00.380

CCCCCCNC(=O)n1cc(F)c(=O)[nH]c1=O [HCFU(Mifur ol)]
T/C ([4]; 129 mg/kg po(×5)): 61.15* %
T7/To ([4]; 129 mg/kg po(×5), group mean): 0.844±0.040
W7/Wo ([4]; 129 mg/kg po(×5), group mean): 1.104±0.037
Body weight 7 days after transplantation (W7) [4, 6]: 21.3 g and 22.7 g and 21.8 g and 23.7 g
T7/To [4, 6]: 0.929 and 0.885 and 0.741 and 0.821
Tumor 7 days after transplantation (T7) [4, 6]: 13.0 omu and 11.5 omu (2×) and 10.5 omu
W7/Wo [4, 6]: 1.087 and 1.207 and 1.028 and 1.097
T/C ([4]; 257 mg/kg po(×5)): 66.82* %
T7/To ([4]; 257 mg/kg po(×5), group mean): 0.922±0.042
W7/Wo ([4]; 257 mg/kg po(×5), group mean): 1.080±0.035
Body weight 7 days after transplantation (W7) [4, 7]: 21.7 g and 23.2 g and 18.2 g and 19.4 g
T7/To [4, 7]: 0.896 and 1.037 and 0.833 and 0.923
Tumor 7 days after transplantation (T7) [4, 7]: 13.0 omu and 14.0 omu and 12.5 omu and 12.0 omu
W7/Wo [4, 7]: 1.109 and 1.166 and 1.011 and 1.037

From EP0412158A1, “ONCOSTATIC DRUG” (priority 1987, dated 1988)
